In patent US20240000811A1, “INOSITOL HEXAKISPHOSPHATE ANALOGUES FOR TREATMENT OF CALCIFICATION ASSOCIATED KIDNEY DISEASES” (INOSITEC AG, priority 2020, published 2024):

Assays:
[1] = In-solution screening: CaP precipitation and aggregation in artificial renal tubular fluid (RTF); details: 9 mM phosphate, 8 mM calcium, 4 h, RT
Method: An artificial renal tubular fluid (RTF) with a final composition of 0.05 mM oxalate, 0.005 mM sulphate, 408 mM sodium, 424 mM chloride, 0.26 mM potassium, 4 mM magnesium and 0.2 mM citrate in double distilled water was prepared according to a literature report (Fasano, J. M. et al., Kidney Int. 59, 169-178. DOI: 10.1046/j.1523-1755.2001.00477.x, 2001). The solution was filtered with a 0.45-μm syringe filter. Twenty mM Bis-Tris buffer was added to the reported protocol to ensure pH stability throughout experiments and pH was set to 7.2. The artificial RTF was stored at room temperature for up to four months. Stock solutions of 0.25 M phosphate and 1 M calcium were prepared in double distilled water and were stored separately at −20° C.
Twenty-x final concentration phosphate, 20× final concentration calcium and 10× final concentration compound dilutions were prepared in RTF. Assay mixture consisting of 80% RTF, 10% compound dilution, 5% phosphate dilution and 5% calcium dilution was prepared in Eppendorf tubes as follows. RTF (320 μL) was mixed with 20 μL phosphate dilution (final concentration of 9 mM), 40 μL compound dilution and 20 μL calcium dilution (final concentration of 8 mM). The assay mixture was vortexed after adding each component and 380 μL of the mixture were immediately added to 8-well glass bottom slides and incubated for 4 hat RT. CaP precipitation was assessed using a Leica DM 6000B microscope (Leica Microsystems, Wetzlar, Germany) in brightfield mode. For quantification 3 wells/condition with 3-4 images/well were imaged with a 40× objective. The total area covered with CaP deposits in percentage of the field of view and the mean size of CaP aggregates were determined.
In a first step, the influence of selected IP6 analogues (FIG. 3) on CaP precipitation and growth was assessed in vitro using artificial renal tubular fluid (RTF) (Table 1). In a previous study, the inventors investigated CaP protein particle formation in serum. However, an important difference to cardiovascular calcification lies in the extremely low protein content of the renal tubular fluid vs. the high abundance of proteins in blood, which can stabilize amorphous particles. Two cut-offs were chosen for assessing efficacy. First, complete inhibition was defined as a >90% reduction of detected CaP precipitates compared to the control sample without compound.

[2] = system: RPTEC/TERT 1 human proximal tubule cells; assay: Imaging assay: CaP adhesion/deposition and cellular changes on RPTEC monolayers treated with 5/7 mM Ca/P; format: cell-based; details: 7 mM phosphate, 5 mM calcium, 24 h
Method: RPTEC/TERT 1 human proximal tubule cells (RPTEC) were cultured in T75 tissue culture flasks using ProxUp basal medium mixed with ProxUp supplements at 37° C. and 5% CO2 according to manufacturer's recommendations. Cells were used up to passage 30 and regularly tested for Mycoplasma infections. For experiments, RPTEC were cultured in 24-well plates at a seeding density of 150′000 cells/cm^2. Cell viability assessment and cell counting before seeding was performed using an automated cell counter (BioRad TC 20, Hercules, CA, USA).
For the comparison of selected IP6 analogues, ProxUp basal medium was prepared with the selected inhibitor and added to each well. Then, CaP precipitation was induced by direct addition of first, phosphate and second, calcium. Final concentrations of 7 mM phosphate and 5 mM calcium were used. Cells were incubated for 24 h at 37° C. and 5% CO2. Spiked medium was removed, and cells were washed twice with PBS before staining.
For staining, ProxUp basal medium was mixed with calcein (500 nM final concentration), EthD (6 μM final concentration), CellMask stain ([…]) and Hoechst 33342. Staining mixture was added to RPTEC and cells were incubated for 30 min in the dark at 37° C. and 5% CO2. Staining solution was removed, cells were washed with PBS once and ProxUp basal medium was added. Cells were immediately imaged after staining. Images were obtained by epifluorescence microscopy at 37° C., using a Leica CTR6000 microscope. For quantification 3 wells/condition were prepared and 3 images/well were taken. For preliminary adhesion experiments images were taken with a 10× objective, for the imaging assay 20× objective images were taken.
Multichannel images were saved as individual channel images in 8-bit tiff format. For analysis Hoechst channel images were thresholded using the triangle threshold. Touching nuclei of the binary image were further segmented using the watershed algorithm with the distance transform of the binary image as input and local maxima thereof as seeds.
For EthD channel images, high level of background noise was observed, potentially as a result of fluorescence of the CellMask stain bleeding through. […] A fixed minimum threshold was set at 60. Watershed segmentation similar to the Hoechst channel was performed to segment touching objects. For the calcein channel images adaptive thresholding by triangle thresholding achieved good detection of CaP deposits, which was validated by visual comparison to brightfield channel images. For compound experiments, an additional upper threshold was set to the minimum threshold of the pos.ctrl images for the respective experiment. Thereby an overly insensitive threshold in images with a high amount of CaP deposition was circumvented. The sum of foreground pixels of the binary image was used to calculate the total area of CaP deposits. The skimage label algorithm was used to label touching foreground regions.
To segment images to single cells the CellMask channel image was first binarized by adaptive thresholding, using a blocksize of 35, followed by median filtering. Binary erosion was performed to shrink the outlines. A version of watershed algorithm was used to segment the whole image into single cells. To this end, the distance transform of the binary erosion image was used as input image and seeds were set to the local maxima of the Hoechst channel image. While this protocol allowed for an approximation of single cell morphology, further improvements of both analytical and experimental staining procedure would be necessary to achieve more accurate results.
Additionally, texture features of calcein and CellMask channel images were extracted. Grey level co-occurrence matrices were calculated using one set offset of 5 pixel and an angle of 90°. Here, the use of larger offsets could improve the detection of changes in large-scale features, e.g. CaP clustering sites. […]

Compound | concentration at which CaP precipitation was promoted [1] [µM] | effect on CaP precipitation / crystallization (in words) [1] | concentration achieving complete inhibition of CaP adhesion [2] [µM] | also measured
O=P(O)(O)OC1[C@@H](OP(=O)(O)O)[C@H](OP(=O)(O)O)C(O)[C@H](OP(=O)(O)O)[C@H]1OP(=O)(O)O (stereo partly drawn) [IP5, myo-inositol pentakisphosphate, reference compound] | 30 |  |  | 
O=P(O)(O)O[C@H]1[C@H](OP(=O)(O)O)[C@@H](OP(=O)(O)O)[C@H](OP(=O)(O)O)[C@@H](OP(=O)(O)O)[C@H]1OP(=O)(O)O [IP6, Phytic acid, reference compound] | 10 |  |  | 
O=S(=O)(O)OC1C(OS(=O)(=O)O)C(OS(=O)(=O)O)C(OS(=O)(=O)O)C(OS(=O)(=O)O)C1OS(=O)(=O)O (stereo not drawn) [IS6, myo-inositol hexasulfate, reference compound] |  | weak inhibitory properties |  | 
COCCOCCO[C@@H]1[C@@H](OP(=O)(O)O)[C@H](OP(=O)(O)O)[C@@H](OP(=O)(O)O)[C@@H](OP(=O)(O)O)[C@H]1OP(=O)(O)O [OEG2-IP5] |  |  | 50 | concentration for complete inhibition of CaP precipitation (>90% reduction of detected CaP precipitates vs control) [1]: 30 µM; concentration for inhibition of CaP aggregation (>50% reduction of mean size of aggregates vs control) [1]: 1 µM
COCCOCCOCCOCCOCCOCCOCCOCCOCCOCCOCCO[C@@H]1[C@@H](OP(=O)(O)O)[C@H](OP(=O)(O)O)[C@@H](OP(=O)(O)O)[C@@H](OP(=O)(O)O)[C@H]1OP(=O)(O)O [OEG11-IP5] |  |  | 50 | aggregation inhibitory concentration (>50% reduction of mean size of aggregates vs control) [1]: 300 nM
cyclohexane hexacarboxylic acid [IC6, reference compound] |  | weak inhibitory properties |  | 
